According to US10590383B2, “Methods for differentiating pluripotent cells” (FUJIFILM Cellular Dynamics, Inc., priority 2016, dated 2020):
Entries after “also recorded” stand apart in the source; their conditions may differ.

Legend:
[1] = tested on: human induced pluripotent stem cell (iPS) cell lines; assay: mDA progenitor patterning on process day 17 (FoxA2 by flow cytometry, FoxA2/Lmx1 co-expression by ICC); format: cell-based; settings: for use in mono-SMAD inhibition methods to produce midbrain dopaminergic neurons from iPS cells / percentage of mDA progenitors induced (FoxA2 / FoxA2+Lmx1 cells): single SMAD inhibitor; for percentage of mDA progenitors induced (FoxA2 / FoxA2+Lmx1 cells): alternate patterning conditions, multiple iPSC lines, process day 17
Procedure: Midbrain neuronal differentiation of human induced pluripotent stem cell (iPS) cell lines expanded on VTN-TN in Essential 8 medium was performed with small molecule and growth factor induction using a variety of differentiation media compositions and schedules as detailed in Tables 1-5. Generally, the iPS cells were cultured in D1 DA Neuron Induction Medium on Day 1, D2 Neuron Induction Medium on Day 2, and D3-D4 DA Induction Medium on Day 3 and 4. On Day 5, the cells were dissociated with TrypLE for 15 minutes and collected in DA Quench Medium before transferring the cells to a spinner flask suspension culture to form aggregates in D5 DA Neuron Aggregate Formation Medium.
On Day 6, the aggregates were settled, about 66% of the medium was removed, and the aggregates were fed DA Neuron Induction Medium. On Days 7-16, the aggregates were fed daily with DA Neuron Aggregate Maintenance Medium, and the medium was changed on Day 11 through 16. On Day 17, aggregates were dissociated to a single-cell suspension with TrypLE and plated onto Matrigel in D17 DA Neuron Aggregate Plating Medium. On Days 18, 20, 22 the medium was replaced with DopaNeuron Maturation Medium. On Day 24, the cells were dissociated using Accutase and plated in DA Neuron Maturation Plating Medium. The next day, the medium was replaced with DopaNeuron Maturation Medium.
The iCell DopaNeurons process was optimized with most progenitor patterning factors added starting on day 1. This includes factors for neuralization (dual-SMADi), sonic hedgehog signaling (Shh, PMN), and Wnt signaling (CHIR). […] A large number of optimization experiments were carried out across several iPSC lines to define conditions for efficient mono-SMADi mDA progenitor patterning, varying the timing and dose of all patterning factors. […] In the alternate (ALT) method, the SHH/Purmophamine addition was moved from Day 1 to Day 2. The changes utilized in this improvement included: (i) staggering the addition of the Wnt agonist (CHIR) to day 2 or day 3, (ii) re-optimizing the CHIR concentration, as this is dependent on the time it is first added, and (iii) moving the window where PD03 is added, as the optimal window depends on when CHIR is added. The end result was a narrow set of conditions that led to highly-efficient mDA progenitor formation in multiple iPS cell lines. Approximately half of the iPSC lines tested were able to generate mDA progenitors using mono-SMADi conditions.
FoxA2/Lmx1 coexpression is the most accurate marker for mDA progenitor cells. The use of alternate patterning conditions allows for efficient mDA progenitor patterning in the context of mono-SMAD inhibition (“Mono/Alternate”), whereas the standard patterning conditions have poor mDA progenitor patterning in the context of mono-SMAD inhibition (“Mono/Standard”). Control differentiations using dual-SMADi and standard patterning conditions (“Dual/Standard”) are shown for comparison.
Once an alternate patterning condition was identified that allowed for successful differentiation using mono-SMAD inhibition (Condition 1, i.e., Table 4: Alternate, LDN at 200 nM), the method was refined using a matrix of conditions, including the concentration of CHIR, and the treatment windows for Shh signaling, Wnt signaling, and MEK inhibition. […] Tyrosine hydroxylase (TH) expression is low in immature mDA neurons.
Different inhibitors were tested for function in mono-SMADi methods, as follows. The iCell DopaNeurons process induces neuralization using LDN-193189, an inhibitor of BMP signaling (inhibits ALK 1/2/3/6, blocks SMAD 1/5/8), and SB-431542, an inhibitor of TGF-b signaling (inhibits ALK 4/5/7, blocks SMAD 2/3). Together, this is referred to as “dual SMAD inhibition”, or “dual SMADi.” To define optimal conditions for neuralization using only a single SMAD inhibitor in the mDA process, various analogs of LDN-193189 and SB-431542 were screened across multiple iPS cell lines using the alternate patterning conditions described above. […]

iPSC-derived mDA neurons = assay: Marker characterization at process completion, day 37 (MAP2/nestin, FoxA2, TH); format: cell-based, human; settings: 2 μM LDN versus 200 nM, Condition 7, iPSC line K
Text: On Day 31, the cells were dissociated with Accutase and re-plated onto poly-L-ornithine (PLO)/Laminin-coated flasks in DA Neuron Maturation Plating Medium. Next, on Days 32, 34, and 36, the cells were fed DopaNeuron Maturation Medium. On Day 37 or 38, the cells were again dissociated with Accutase and subjected to analysis or cryopreserved for later use.
Three iPSC lines (C, K, and H) are shown as examples of successful differentiations taken to process completion (day 37) (FIG. 5). The iPSC lines C, K, and H are iPSC lines (21526.101, 21534.101, and 21531.101, respectively). Data was obtained using the approach in Table 4 for Alternate LDN and Table 1 for Standard Dual control. Differentiation of the H line using dual-SMADi and the optimized standard patterning is shown for comparison. In each case, a high level of neuron purity was observed (>90% MAP2+/nestin−), and essentially all neurons co-express FoxA2. The inventors have observed that the vast majority of MAP2+/FoxA2+ cells at this stage also express Lmx1, and are therefore mDA neurons. The DA neuron phenotype was confirmed by the expression of tyrosine hydroxylase (TH) in the majority of neurons, a marker of more mature DA neurons. […]

[2] = target: TGF-β type 1 (ALK4/5/7) receptor signaling; settings: read-out: IC50 for inhibition of TGF-β type 1 (ALK4/5/7) receptor signaling; cited from earlier work
[3] = tested on: dividing cells / post-mitotic mDA neurons; assay: In-process purification of mDA neurons with mitomycin C (neuron purity MAP2+/nestin-, day 37); format: cell-based, human; settings: chemo drug selection, no selection gave 44%
Text: In-Process Purification of mDA Neurons: Even with efficient mDA progenitor patterning, there is a population of cells that continues to proliferate even after the maturing mDA neurons leave the cell cycle (approximately day 25). […] Intermediate doses given for intermediate times could also be used to achieve a similar effect.

c1ccc2c(-c3cnn4cc(-c5ccc(N6CCNCC6)cc5)cnc34)ccnc2c1 [LDN-193189]
FoxA2 and Lmx1 expression levels in day 17 progenitors ([1]; 2 μM LDN versus 200 nM, Condition 7, iPSC line K, n=5 experiments): higher FoxA2 and Lmx1 expression levels
use in mono-SMAD inhibition methods to produce midbrain dopaminergic neurons from iPS cells [1]: successfully used
percentage of mDA progenitors induced (FoxA2 / FoxA2+Lmx1 cells) [1]: best overall at inducing the highest percentage of mDA progenitors; also recorded: most efficient at neutralizing mDA progenitors across multiple iPSC lines
percentage of floor plate-derived neurons (FoxA2+) on process day 37 (iPSC-derived mDA neurons): higher percentage of floor plate-derived neurons (FoxA2+)
IC50 [2]: > 500 nM

CO[C@@]12[C@H](COC(N)=O)C3=C(C(=O)C(C)=C(N)C3=O)N1C[C@@H]1N[C@@H]12 [MMC, mitomycin C]
final neuron purity (MAP2+/nestin−) [3]: > 90%

c1ccc(-c2[nH]ncc2-c2ccnc3ccccc23)nc1 [LY364947]
percentage of mDA progenitors induced (FoxA2 / FoxA2+Lmx1 cells) [1]: did not outperform LDN

Cc1cccc(-c2nn(C(=S)Nc3ccccc3)cc2-c2ccnc3ccccc23)n1 [A-83-01]
percentage of mDA progenitors induced (FoxA2 / FoxA2+Lmx1 cells) [1]: did not outperform LDN

CC(C)Oc1ccc(-c2cnc3c(-c4ccnc5ccccc45)cnn3c2)cc1 [DMH-1]
use in mono-SMAD inhibition methods to produce midbrain dopaminergic neurons from iPS cells [1]: successfully used
